system: Escherichia coli; experiment: Antibacterial activity against cefoxitin-resistant Escherichia coli by microdilution method; assay type: functional

`CO[C@@]1(NC(=O)Cc2cccs2)C(=O)N2C(C(=O)O)=C(COC(N)=O)CS[C@@H]21` [CEFOXITIN] and `CO/N=C(\C(=O)N[C@@H]1C(=O)N2C(C(=O)O)=C(CSC(=O)c3ccco3)CS[C@H]12)c1csc(N)n1` [CEFTIOFUR] cannot be ordered by MIC: at least 16 µg/mL for the first, at least 8 µg/mL for the second.

Work on `CN[C@@H]1[C@H](O[C@H]2[C@H](O[C@H]3[C@H](O)[C@@H](O)[C@H](N=C(N)N)[C@@H](O)[C@@H]3N=C(N)N)O[C@@H](C)[C@]2(O)C=O)O[C@@H](CO)[C@H](O)[C@H]1O` [STREPTOMYCIN] yielded an MIC of at least 64 µg/mL.
